According to US20220249674A1, “BIOACTIVE SAPONIN LINKED TO A FUNCTIONAL MOIETY” (priority 2019, published 2022):
Like-named read-outs stand apart in the source and are kept apart here.

Key:
A431 cells = type: cell-based, human; settings: chloroquine coadministration, with cetuximab-saporin (FIG. 52)
Experimental: Cells were seeded in a 96 well plate at 5.000-10.000 c/w in 100 μL/well and incubated overnight at 37° C. […] The media was removed from the cell culture plate and replaced by 180 μL culture media, followed by the addition of 20 μL treatment-mix/well. […] In the case that endosomal acidification inhibitors (chloroquine (Sigma Aldrich) or bafilomycin A1 (Enzo Life Sciences)) were used, the cell culture media in step 1 of treatment was replaced by 180 μL media containing 1 μM chloroquine or 0.2 μM bafilomycin A1. The plate was incubated for 1 hour at 37° C., before the 10× treatment-mix samples were added. The remaining incubation and treatment steps were performed according to standard procedures known in the field.

HeLa cells [1] = assay: Cell-based bioassay of chemically modified SO1861 with dianthin-EGF (Example 8)
Experimental: HeLa cells were incubated for 72 h with the following constructs and cell viability before and after the 72 h-incubation was assessed. In the experiments, cells were exposed to 1.5 μM dianthin-EGF conjugate. A negative control were cells incubated with buffer vehicle and 10 microgram/ml saponin, without dianthin-EGF. Cell viability was set to 100% for the control in which both saponin and EGF-dianthin were omitted. […] Cell viability after 72 h was essentially 0%. For the chemically modified saponin variants, 10 microgram/ml saponin was tested in combination with 1.5 μM dianthin-EGF.

[2] = test system: EGFR expressing cells (e.g. A431, HeLa); type: cell-based; parameters: key: Cell killing activity (+ or −); Cell killing activity (+ or −)
Text: The saponin is either linked to the ligand directly, or via a (cleavable) linker, via a scaffold, a carrier protein, etc., etc.

[3] = pH dependent hydrolysis of the hydrazone bond (MALDI-TOF-MS); type: physicochemical; settings: HCl solution at pH 3
NIH-3T3 cells = settings: saporins; cited from earlier work
[4] = test system: SK-BR-3, JIMT-1, MDA-MB-468, A431, CaSki, HeLa, A2058, BT-474; assay: Relative cell viability, mAb / toxin / mAb-toxin monotherapy (FIG. 11); type: cell-based; parameters: dose or concentration left out as unconfirmed; settings: panel of cell lines
Experimental: After treatment the cells were incubated for 72 hr at 37° C. before the cell viability was determined by a MTS-assay, performed according to the manufacturer's instruction (CellTiter 96® AQueous One Solution Cell Proliferation Assay, Promega). Briefly, the MTS solution was diluted 20× in DMEM without phenol red (PAN-Biotech GmbH) supplemented with 10% FBS (PAN-Biotech GmbH). […] Subsequently, the optical density at 492 nm was measured on a Thermo Scientific Multiskan FC plate reader (Thermo Scientific). For quantification the background signal of ‘medium only’ wells was subtracted from all other wells, before the ratio of untreated/treated cells was calculated, by dividing the background corrected signal of untreated wells over the background corrected signal of the treated wells.

[5] = combinatory treatment with saponins; cited from earlier work
HeLa cells [6] = assay: Cell viability assay, inhibition of SO1861-mediated endosomal escape by polymeric structures (Example 19); type: cell-based; settings: SO1861 series + […] dianthin-EGF, 500 nM PAMAM (derivative) or chloroquine, 667 nM dendron
mammalian cells = assay: Cell-based bioassay of endosomal escape enhancement by QS-21; settings: 2.5 microgram/ml; effector moiety EGF-dianthin
Text: The effector moiety exposed to the cells was EGF-dianthin.

Molecule: CC(=O)OC1C(C)OC(OC2C(C)OC(OC(=O)[C@]34CCC(C)(C)CC3C3=CCC5[C@@]6(C)CC[C@H](OC7OC(C(=O)O)C(O)C(OC8OCC(O)C(O)C8O)C7OC7OC(CO)C(O)C(O)C7O)[C@@](C)(/C=N/NC(=O)CCCCCN7C(=O)C=CC7=O)C6CC[C@@]5(C)[C@]3(C)C[C@H]4O)C(OC3OC(C)C(OC4OCC(O)C(OC5OC(CO)C(O)C(O)C5O)C4O)C(O)C3O)C2O)C(O)C1OC1OCC(O)C(O)C1O (some centres unmarked) [SO1861-EMCH]
- activity when endosomal acidification is blocked (in words) (A431 cells): strongly reduces the activity
- cell viability (in words) (HeLa cells [1]): reduced cell viability
- Cell killing activity ([2]; 10 μg/ml SO1861 (conjugate) + […] EGFdianthin): +
- Cell killing activity ([2]; 10 μg/ml SO1861 (conjugate), without EGFdianthin): −
- hydrolysis of the hydrazone bond (in words) [3]: responsive towards hydrolysis and gets cleaved

Molecule: CC1(C)[C@@H](O[C@H]2O[C@H](C(=O)O)[C@@H](O)[C@H](O)[C@H]2O[C@@H]2O[C@H](C(=O)O)[C@@H](O)[C@H](O)[C@H]2O)CC[C@]2(C)[C@H]3C(=O)C=C4[C@@H]5C[C@@](C)(C(=O)O)CC[C@]5(C)CC[C@@]4(C)[C@]3(C)CC[C@@H]12 [glycyrrhizic acid]
- enhancing effect on toxin toxicity (in words) (NIH-3T3 cells): do hardly have any positive effect

Molecule: saporin
- relative cell viability (in words) [4]: do not or hardly have any influence on cell viability

Molecule: Pseudomonas exotoxin A: bacterial toxin
- enhancement of cytotoxicity by saponins (in words) [5]: remained unaffected

Molecule: CCN(CC)CCCC(C)Nc1ccnc2cc(Cl)ccc12 (centres unmarked) [chloroquine]
- inhibition of SO1861-mediated endosomal escape of the targeted toxin (in words) (HeLa cells [6]): inhibit the SO1861-mediated endosomal escape of the targeted toxin

Molecule: QS-21
- endosomal escape enhancement (in words) (mammalian cells): capable of enhancing endosomal escape

Molecule: helianthoside
- enhancing effect on toxin toxicity (in words) (NIH-3T3 cells): do hardly have any positive effect
